Consider 32 compounds from patent publication US6001809A, “Inhibitors of leukocyte adhesion” (Elan Pharmaceuticals, Inc., priority 1995, dated 1999).

Bridge positions count the residues as written; N and C are the ends. Square brackets hold non-standard residues; d marks the D form. Ends that are not written are not given here. Peptide text beside a SMILES is read from it. I, II: the chains in the order shown.

The target in the first experiment is T1, VLA-4 integrin interaction with VCAM-1 (Homo sapiens, UniProt P05556+P13612).
T1 construct: endogenous in cells; host or cells: Jurkat cells (VLA-4)
T1 sequence (P13612 34-1032): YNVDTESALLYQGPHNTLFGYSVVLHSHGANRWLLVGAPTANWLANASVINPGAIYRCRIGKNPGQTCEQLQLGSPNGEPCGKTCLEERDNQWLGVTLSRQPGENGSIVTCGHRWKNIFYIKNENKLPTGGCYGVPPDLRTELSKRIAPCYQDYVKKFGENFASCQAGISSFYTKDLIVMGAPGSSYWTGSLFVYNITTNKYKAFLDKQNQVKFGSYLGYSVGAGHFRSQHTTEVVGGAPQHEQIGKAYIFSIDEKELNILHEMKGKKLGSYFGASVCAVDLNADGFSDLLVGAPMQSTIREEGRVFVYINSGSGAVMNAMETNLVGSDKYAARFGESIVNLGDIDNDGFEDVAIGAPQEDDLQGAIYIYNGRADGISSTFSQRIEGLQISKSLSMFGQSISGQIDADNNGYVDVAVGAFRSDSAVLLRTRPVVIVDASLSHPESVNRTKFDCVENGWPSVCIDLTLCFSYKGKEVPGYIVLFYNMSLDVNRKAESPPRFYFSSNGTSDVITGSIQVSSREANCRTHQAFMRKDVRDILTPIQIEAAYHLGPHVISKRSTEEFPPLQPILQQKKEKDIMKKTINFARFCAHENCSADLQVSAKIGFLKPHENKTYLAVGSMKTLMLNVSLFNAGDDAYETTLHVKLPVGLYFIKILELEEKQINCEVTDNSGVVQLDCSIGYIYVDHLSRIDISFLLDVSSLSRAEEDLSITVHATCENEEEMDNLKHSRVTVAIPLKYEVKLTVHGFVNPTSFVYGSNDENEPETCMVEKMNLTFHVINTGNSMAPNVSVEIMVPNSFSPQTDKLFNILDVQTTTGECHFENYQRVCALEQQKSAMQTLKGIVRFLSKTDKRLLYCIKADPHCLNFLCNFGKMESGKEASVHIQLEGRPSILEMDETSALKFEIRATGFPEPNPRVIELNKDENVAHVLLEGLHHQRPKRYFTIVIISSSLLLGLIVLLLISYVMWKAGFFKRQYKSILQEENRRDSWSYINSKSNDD
T1 sequence (P05556 21-798): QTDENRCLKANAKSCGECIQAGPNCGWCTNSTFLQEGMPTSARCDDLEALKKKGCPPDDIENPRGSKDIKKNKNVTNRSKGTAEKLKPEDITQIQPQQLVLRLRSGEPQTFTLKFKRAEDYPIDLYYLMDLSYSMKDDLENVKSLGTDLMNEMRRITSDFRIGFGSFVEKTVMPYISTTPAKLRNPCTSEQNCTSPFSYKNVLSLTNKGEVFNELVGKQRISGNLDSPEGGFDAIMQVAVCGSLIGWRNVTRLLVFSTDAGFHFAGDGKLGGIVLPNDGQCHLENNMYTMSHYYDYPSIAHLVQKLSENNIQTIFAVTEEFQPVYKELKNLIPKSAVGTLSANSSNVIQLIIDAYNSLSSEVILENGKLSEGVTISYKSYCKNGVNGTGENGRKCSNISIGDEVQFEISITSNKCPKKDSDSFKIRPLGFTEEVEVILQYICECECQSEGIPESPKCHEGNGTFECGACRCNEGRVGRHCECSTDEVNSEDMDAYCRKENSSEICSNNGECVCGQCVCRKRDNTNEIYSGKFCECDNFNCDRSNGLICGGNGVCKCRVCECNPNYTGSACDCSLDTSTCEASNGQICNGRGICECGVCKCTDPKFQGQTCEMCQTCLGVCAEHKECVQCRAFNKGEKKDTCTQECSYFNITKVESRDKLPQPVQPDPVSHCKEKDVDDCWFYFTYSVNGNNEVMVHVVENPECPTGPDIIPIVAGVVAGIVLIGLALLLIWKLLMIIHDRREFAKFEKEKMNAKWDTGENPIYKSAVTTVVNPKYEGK
As to the kind of experiment: Jurkat interaction with soluble VCAM-1 (sVCAM-1-IgG), FACS assay. The class given is cell-based.
Settings: not given
An excerpt:
VCAM-1 was expressed as a soluble fusion protein. The construct expressed the seven extracellular domains of VCAM-1 on the N-terminus, and the human IgG1 heavy chain constant region on the C-terminus. Interaction of the soluble construct with Jurkat cells was monitored by standard FACS analysis, using a fluorescently labeled antibody directed against the construct's human IgG tail as a marker.
The activity of VLA-4 can be regulated. 15/7 is a monoclonal antibody that recognizes an activated conformation of VLA-4 and locks the molecule in the active state, thereby enhancing VLA-4-mediated cell adhesion.
Peptides of different length, and with various amino acid substitutions were synthesized based on the sequence of the CDR3 region of the antibody 21/6 (EGYYGNYGVYA) (SEQ ID No. 4). The peptides were then tested for their ability to inhibit Jurkat interaction with sVCAM-1-IgG in the FACS assay described in Example 6. IC50 values were determined for each peptide using this assay.
In turn, `C[C@H](N)C(=O)N[C@@H](Cc1ccc(O)cc1)C(=O)N[C@@H](Cc1ccc(O)cc1)C(=O)NCC(=O)N[C@@H](Cc1ccc(O)cc1)C(=O)N[C@@H](CC(N)=O)C(=O)N[C@@H](CSSC[C@H](NC(=O)[C@H](CC(N)=O)NC(=O)[C@H](Cc1ccc(O)cc1)NC(=O)CNC(=O)[C@H](Cc1ccc(O)cc1)NC(=O)[C@H](Cc1ccc(O)cc1)NC(=O)[C@H](C)N)C(=O)O)C(=O)O` [SEQ ID No. 144, AYYGYNC AYYGYNC] (I: H-AYYGYNC-OH / II: H-AYYGYNC-OH; disulfide I:7-II:7) gave an IC50 of no more than 50 µM.
On the same count and under the same terms, the figure for “Ac-EGYYGNYGVAA [SEQ ID No. 12, [Ac]EGYYGNYGVAA]” is no more than 50 µM; for EGYYGNYGVY [SEQ ID No. 17, EGYYGNYGVY] it is no more than 50 µM.
Same read-out and setting: then `C[C@H](N)C(=O)N[C@@H](Cc1ccc(O)cc1)C(=O)N[C@@H](Cc1ccccc1)C(=O)NCC(=O)N1CCC[C@H]1C(=O)N[C@@H](CSSC[C@H](NC(=O)[C@@H]1CCCN1C(=O)CNC(=O)[C@H](Cc1ccccc1)NC(=O)[C@H](Cc1ccc(O)cc1)NC(=O)[C@H](C)N)C(=O)O)C(=O)O` [SEQ ID No. 71, AYFGPC AYFGPC] (I: H-AYFGPC-OH / II: H-AYFGPC-OH; disulfide I:6-II:6), with no more than 50 µM.
The same measure, in the same setting: then `NC(=O)C[C@H](NC(=O)[C@H](CCC(=O)O)NC(=O)[C@H](Cc1ccc(O)cc1)NC(=O)[C@H](Cc1ccc(O)cc1)NC(=O)[C@@H](N)CO)C(=O)N[C@@H](CSSC[C@H](NC(=O)[C@H](CC(N)=O)NC(=O)[C@H](CCC(=O)O)NC(=O)[C@H](Cc1ccc(O)cc1)NC(=O)[C@H](Cc1ccc(O)cc1)NC(=O)[C@@H](N)CO)C(=O)O)C(=O)O` [SEQ ID No. 125, SYYENC SYYENC] (I: H-SYYENC-OH / II: H-SYYENC-OH; disulfide I:6-II:6), with no more than 50 µM; and `NC(=O)CC[C@@H]1NC(=O)CNC(=O)[C@H](Cc2ccc(O)cc2)NC(=O)[C@H](Cc2ccc(O)cc2)NC(=O)CSC[C@@H](C(=O)O)NC1=O` [SEQ ID No. 52, [Ac]YYGQC] ({CH2CO}-YYGQC-OH; thioether N-5), with no more than 50 µM.
In turn, “Ac-EGYYGAYGVYA [SEQ ID No. 9, [Ac]EGYYGAYGVYA]” had an IC50 of no more than 50 µM.
Still for that read-out and setting: then “Ac-EGYYGNYGVY [SEQ ID No. 22, [Ac]EGYYGNYGVY]”, with no more than 50 µM.
On the same count and under the same terms, the figure for “Ac-EGYYGNYGGYA [SEQ ID No. 43, [Ac]EGYYGNYGGYA]” is no more than 50 µM; for `C[C@H](N)C(=O)N[C@H](Cc1ccc(O)cc1)C(=O)N[C@@H](Cc1ccc(O)cc1)C(=O)N[C@@H](CCC(=O)O)C(=O)N[C@@H](C)C(=O)N[C@@H](CS)C(=O)O` [SEQ ID No. 133, AyYEAC] (H-A[dY]YEAC-OH) it is no more than 50 µM.
Same read-out and setting: then `C[C@H](N)C(=O)N[C@H](Cc1ccc(O)cc1)C(=O)N[C@@H](Cc1ccc(O)cc1)C(=O)N[C@@H](CCC(=O)O)C(=O)N[C@@H](C)C(=O)N[C@@H](CSSC[C@H](NC(=O)[C@H](C)NC(=O)[C@H](CCC(=O)O)NC(=O)[C@H](Cc1ccc(O)cc1)NC(=O)[C@@H](Cc1ccc(O)cc1)NC(=O)[C@H](C)N)C(=O)O)C(=O)O` [SEQ ID No. 140, AyYEAC AyYEAC] (I: H-A[dY]YEAC-OH / II: H-A[dY]YEAC-OH; disulfide I:6-II:6), with no more than 50 µM; and SYYENC [SEQ ID No. 124, SYYENC], with no more than 50 µM.
`NC(=O)C[C@@H]1NC(=O)[C@H](CCC(=O)O)NC(=O)[C@H](Cc2ccc(O)cc2)NC(=O)[C@H](Cc2ccc(O)cc2)NC(=O)CSC[C@@H](C(=O)O)NC1=O` [SEQ ID No. 60, [Ac]YYENC] ({CH2CO}-YYENC-OH; thioether N-5) displayed an IC50 of no more than 50 µM.
For the compound `NC(=O)C[C@@H]1NC(=O)[C@H](Cc2ccc(O)cc2)NC(=O)CNC(=O)[C@H](Cc2ccc(O)cc2)NC(=O)[C@H](Cc2ccc(O)cc2)NC(=O)CSC[C@@H](C(=O)O)NC1=O` [SEQ ID No. 62, [Ac]YYGYNC] ({CH2CO}-YYGYNC-OH; thioether N-6), the half-maximal inhibitory concentration (IC50) is no more than 50 µM.
Same read-out and setting: the figure for “Ac-YYGNYGVYA [SEQ ID No. 45, [Ac]YYGNYGVYA]” is no more than 50 µM; for `CC(C)C[C@H]1NC(=O)CSC[C@@H](C(=O)O)NC(=O)[C@H](CC(N)=O)NC(=O)CNC(=O)[C@H](Cc2ccccc2)NC1=O` [SEQ ID No. 94, [Ac]lFGNC] ({CH2CO}-[dL]FGNC-OH; thioether N-5) it is no more than 50 µM.
Regarding `C[C@H](N)C(=O)N[C@@H](Cc1ccc(O)cc1)C(=O)N[C@@H](Cc1ccc(O)cc1)C(=O)N[C@@H](CCC(=O)O)C(=O)N[C@@H](CC(N)=O)C(=O)N[C@@H](CSSC[C@H](NC(=O)[C@H](CC(N)=O)NC(=O)[C@H](CCC(=O)O)NC(=O)[C@H](Cc1ccc(O)cc1)NC(=O)[C@H](Cc1ccc(O)cc1)NC(=O)[C@H](C)N)C(=O)O)C(=O)O` [SEQ ID No. 123, AYYENC AYYENC] (I: H-AYYENC-OH / II: H-AYYENC-OH; disulfide I:6-II:6), the half-inhibitory concentration (IC50) was no more than 50 µM.
As to “Ac-EGYYGNYGAAA [SEQ ID No. 41, [Ac]EGYYGNYGAAA]”, the IC50 was no more than 50 µM.
Same read-out and setting: then “Ac-EGYYGNYGAYA [SEQ ID No. 42, [Ac]EGYYGNYGAYA]”, with no more than 50 µM; and `NC(=O)C[C@@H]1NC(=O)CNC(=O)[C@H](Cc2ccccc2)NC(=O)CNC(=O)[C@@H](N)CSSC[C@@H](C(=O)O)NC(=O)[C@H](Cc2ccc(O)cc2)NC(=O)[C@H](CO)NC(=O)[C@H](Cc2c[nH]cn2)NC(=O)[C@H](CCC(=O)O)NC1=O` [SEQ ID No. 31, CGFGNEHSYC] (H-CGFGNEHSYC-OH; disulfide 1-10), with no more than 50 µM.
On the same count and under the same terms, then STLTMNPVSF [SEQ ID No. 40, STLTMNPVSF], with no more than 50 µM.
Same read-out and setting: the figure for `C[C@H](N)C(=O)N[C@H](Cc1ccc(O)cc1)C(=O)N[C@@H](Cc1ccc(O)cc1)C(=O)NCC(=O)N[C@@H](C)C(=O)N[C@@H](CSSC[C@H](NC(=O)[C@H](C)NC(=O)CNC(=O)[C@H](Cc1ccc(O)cc1)NC(=O)[C@@H](Cc1ccc(O)cc1)NC(=O)[C@H](C)N)C(=O)O)C(=O)O` [SEQ ID No. 150, AyYGAC AyYGAC] (I: H-A[dY]YGAC-OH / II: H-A[dY]YGAC-OH; disulfide I:6-II:6) is no more than 50 µM; for `C[C@@H]1NC(=O)CNC(=O)[C@H](Cc2ccc(O)cc2)NC(=O)[C@H](Cc2ccc(O)cc2)NC(=O)CSC[C@@H](C(=O)O)NC1=O` [SEQ ID No. 54, [Ac]YYGAC] ({CH2CO}-YYGAC-OH; thioether N-5) it is no more than 50 µM; for “Ac-EGYYGNAGVAA [SEQ ID No. 15, [Ac]EGYYGNAGVAA]” it is no more than 50 µM.
In the case of `C[C@H](N)C(=O)N[C@H](Cc1ccc(O)cc1)C(=O)N[C@@H](Cc1ccc(O)cc1)C(=O)N[C@@H](CCC(=O)O)C(=O)N[C@@H](CC(N)=O)C(=O)N[C@@H](CSSC[C@H](NC(=O)[C@H](CC(N)=O)NC(=O)[C@H](CCC(=O)O)NC(=O)[C@H](Cc1ccc(O)cc1)NC(=O)[C@@H](Cc1ccc(O)cc1)NC(=O)[C@H](C)N)C(=O)O)C(=O)O` [SEQ ID No. 154, AyYENC AyYENC] (I: H-A[dY]YENC-OH / II: H-A[dY]YENC-OH; disulfide I:6-II:6), the IC50 was no more than 50 µM.
For the compound `CC(C)[C@H]1NC(=O)CSC[C@@H](C(=O)O)NC(=O)[C@H](CC(N)=O)NC(=O)CNC(=O)[C@H](Cc2ccccc2)NC1=O` [SEQ ID No. 96, [Ac]vFGNC] ({CH2CO}-[dV]FGNC-OH; thioether N-5), the IC50 was no more than 50 µM.
Still for that read-out and setting: then `NC(=O)C[C@@H]1NC(=O)CNC(=O)[C@H](Cc2ccccc2)NC(=O)[C@@H](N)CSSC[C@@H](C(=O)O)NC(=O)[C@H](CO)NC(=O)[C@H](Cc2c[nH]cn2)NC(=O)[C@H](CCC(=O)O)NC1=O` [SEQ ID No. 32, CFGNEHSC] (H-CFGNEHSC-OH; disulfide 1-8), with no more than 50 µM; and AYFGPC [SEQ ID No. 142, AYFGPC], with no more than 50 µM.

Still in this experiment, the particulars now being: per Example 6: inhibition of Jurkat interaction with sVCAM-1-IgG, FACS, Mn+2 and 15/7 present; read-out: IC50.
With “Ac-EGYYGNYGVYA [SEQ ID No. 4, [Ac]EGYYGNYGVYA]”, the IC50 was no more than 50 µM.
Still for that read-out and setting: the figure for `CC[C@H](C)[C@@H]1NC(=O)[C@H](CCC(N)=O)NC(=O)[C@H]([C@@H](C)O)NC(=O)[C@H](CCCNC(=N)N)NC(=O)[C@@H](N)CSSC[C@@H](C(=O)O)NC(=O)[C@H](CO)NC(=O)[C@H](CC(=O)O)NC1=O` [SEQ ID No. 35, CRTQIDSC] (H-CRTQIDSC-OH; disulfide 1-8) is no more than 50 µM.

In a further experiment the target is T2, VLA-4 integrin (Homo sapiens, UniProt P05556+P13612).
T2 construct: endogenous in cells; host or cells: Jurkat cells
T2 sequence (P13612 34-1032): as the sequence (P13612 34-1032) above
T2 sequence (P05556 21-798): as the sequence (P05556 21-798) above
As to the kind of experiment: Adhesion of Jurkat cells to peptide-BSA conjugates. Type of experiment: cell-based. The settings on record: peptide conjugated to carrier protein, coated on plastic at 3 μg/mL; FIG. 1. As to the method: The peptide used in this example was synthesized based on the sequence of the anti-α4 integrin antibody 21/6 (CGGEGYYGNYGVYA, SEQ ID No. 1). In this example the peptide was conjugated to a large carrier protein via the linker region that was synthesized as part of the peptide itself (in italics). The conjugated peptide was then coated onto plastic, and the ability of the conjugate to support cell adhesion was tested. This method is based on a report by Wayner and Kovach^40.
As a positive control, the fibronectin peptide described by Wayner was synthesized, conjugated to carrier protein, and tested for cell adhesion in parallel with SEQ ID NO. 1 (CGGEILDVPST, SEQ ID No. 2). Both peptide conjugates were exposed to the plastic at a concentration of 3 μg/mL. […] Adhesion was not affected by an antibody against β2 integrin (IOT18), a distinct cell adhesion molecule that is also expressed on the surface of Jurkat cells. Thus, like peptide SEQ ID NO. 2, peptide SEQ ID NO. 1 interacts with Jurkat in an α4 integrin-specific fashion.
Regarding “CGGEGYYGNYGVYA [SEQ ID No. 1, peptide from anti-α4 integrin antibody 21/6 with CGG linker, conjugated to carrier protein]”, the “adhesion of Jurkat cells to immobilized peptide conjugate” value is “bound equally well”.
Turning to “CGGEILDVPST [SEQ ID No. 2, fibronectin peptide described by Wayner, positive control, conjugated to carrier protein, reference compound]”, the “adhesion of Jurkat cells to immobilized peptide conjugate” value was “bound equally well”.
